# Experimental data published in patent US10301630B2, “Methods and compositions for unsilencing imprinted genes” (The University of North Carolina at Chapel Hill, priority 2010, dated 2019).
# Values joined by “and” are separate entries in the source; they are usually repeats but may differ in a detail not shown here. Equal entries are not always repeated. Where two headings read alike, the source gives them in different places.
# Legend:
# [1] = test system: paternal Ube3a-YFP allele; assay: High-content imaging of paternal Ube3a-YFP unsilencing in primary cortical neurons; format: cell-based, mouse; conditions: for maximal fold induction / EC50 / EC20: Mus musculus; for EC20: Table 3, unsilencing the paternal allele of Ube3a-YFP in cultured neurons, 1 nM to 30 μM, read-out: Potency EC20; for unsilencing of paternal Ube3a-YFP in dose-response experiments: cultured Ube3a m+/pYFP neurons
# Method: In all screening assays, primary cortical neurons from Ube3a-YFP mice are isolated from embryonic day 15.5 animals, and the genotype of animals is determined to identify mice that encode the Ube3a-YFP transgene on the paternal allele. Freshly isolated cortical neurons are seeded into 384 well plates and cultured for 7 days. At day in vitro seven, screening is performed using multiple chemical libraries and compound concentration of 10 μM in 0.2% DMSO vehicle. After 72 h of drug exposure (run in quadruplicate wells), neurons are fixed with 4% para formaldehyde and processed for immunofluorescence using an anti-GFP-Alexa 488 conjugated antibody to enhance the signal of Ube3a-YFP in neurons. For image analyses, individual wells of immunofluorescence-processed plates are imaged fro DAPI and GFP fluorescence using the BD-Pathway 855 high-content imaging microscope. Ube3a-YFP fluorescence intensities in individual neurons are determined in drug-treated wells and normalized to 0.2% DMSO-treated (i.e., vehicle control) wells using custom written macros and algorithms using NIH Image J and Arrayscan Cell Profiler software programs. These image analyses enable masking of nuclei in individual neurons and determination of Ube3a-YFP fluorescence intensity in the nuclei of individual neurons.
# For these studies, DIV 7 primary neurons encoding paternal Ube3a-YFP are dose treated with hit compounds across seven orders of magnitude in full and half log molar concentrations (3 pM to 30 μM). Ube3a-YFP fluorescence intensities in living neurons are determined again by high-content imaging microscopy after 72 h treatments. The dose response results are analyzed by least squares sigmoidal dose-response curve fitting models using Graphpad Prism 5.0 (Graphpad Software, Inc.). The calculated EC50 values (potencies) and Y value top plateau (estimated efficacies or Emax) enable comparative analyses of the relative potency and efficacy of the identified compounds.
# Primary cortical neurons were isolated from E13.5-16.5 Ube3a-YFP mice. Screening was performed in quadruplicate at DIV7 using multiple chemical libraries and a compound concentration of 10 μM in 0.2% DMSO vehicle. After 72 h of drug exposure, neurons were fixed with 4% paraformaldehyde in PBS for 35 min, permeabilized with 0.3% Triton X-100 in PBS on ice for 30 min, and blocked by 5% goat serum with 0.1% Triton X-100 in PBS at room temperature for 1 hr. Cells were incubated with a rabbit polyclonal antibody to GFP (1:1000, Novus Biologicals, NB600-308) at room temperature for 1 hr and then incubated with Alexa Fluor 488 goat antibody to rabbit IgG (1:200, Invitrogen, A11008) and DAPI (1:10,000, Invitrogen, D-1306) at room temperature for 30 min. Individual wells of immunofluorescence-processed plates were imaged for DAPI or Alexa 488 fluorescence using the BD Pathway 855 high-content imaging microscope with a 488 excitation/515 long pass filter. Antibody-enhanced UBE3A-YFP fluorescence intensities were determined from individual neurons in drug-treated wells and normalized to neurons in wells treated with 0.2% DMSO (vehicle control). Analyses were performed with custom macros and algorithms using NIH Image J and Arrayscan Cell Profiler software programs (Thermo Scientific/Cellomics). These image analyses enabled masking of nuclei in individual neurons and determination of UBE3A-YFP fluorescence intensities in the nuclei of individual neurons (FIG. 16).
# DIV7 primary neurons from Ube3a^m+/pYFP mice were dose-treated for 72 h with topoisomerase I and II inhibitors in ten point dose-responses in full and half log molar concentrations (1 nM to 30 μM). Neurons were fixed, processed for immunofluorescence, and UBE3A-YFP fluorescence intensities were again determined by high-content imaging microscopy.
# [2] = test system: paternal Ube3a-YFP allele in spinal neurons; assay: Intrathecal delivery, paternal Ube3a-YFP in spinal cord; format: in vivo, mouse; conditions: for unsilencing of paternal Ube3a-YFP after intrathecal injection: i.t. 5 μl, irinotecan 1000 nmol/day for 5 days, topotecan 200 nmol/day for 6 days
# Method: A soft cloth is placed over the head and upper body of the animal to keep him calm. The experimenter grasps the pelvic girdle of mouse with his thumb and forefinger. Next, the experimenter traces the spinal column of the mouse with a needle. The disposable 30 gauge ½ inch needle is connected to a 50 ul Luer-hub Hamilton syringe. As long as the experimenter senses the bones of the spinal column, the angle of syringe is lowered at 45 degree to the horizontal. The experimenter inserts the needle 1 mm further to the spinal column. Following the 5 ul injection, the syringe is rotated slightly and removed. […] They are 100, 500 and 1000 nmole. Paternal Ube3a-YFP (+/Ey) mice are used throughout these experiments.
# For immunocytochemistry in spinal cord, lumbosacral spinal cord (approximately L1 to S2 and inclusive of the area corresponding to intrathecal injection site) was removed from each mouse and immersion-fixed for 8 h in cold 4% paraformaldehyde/0.1M phosphate buffer (pH 7.4). After a period of cryoprotection in 30% sucrose in 0.1M phosphate buffer, each spinal cord was sectioned on a cryostat at 40 μm. Sections to be stained immediately were collected in PBS; sections to be saved for future study were placed in a PBS/ethylene glycol/glycerol solution and stored at −20° C. Every fourth section was incubated overnight in a mixture containing a chicken IgY to GFP (1:750; Ayes Labs, GFP-1020) and a mouse IgG1 to NeuN (1:250; Millipore, MAB377) and treated the following day with a cocktail containing goat anti-chicken IgY-Alexa 488 (1:200; Invitrogen, A-11039), goat anti-mouse IgG1-Alexa 568 (1:200; Invitrogen, A-21124), and DRAQ5 (1:10,000; Axxora, BOS-889-001). Immunostained sections were mounted from PBS onto SuperFrostPlus Slides (Fisher), which were then air-dried briefly, rehydrated with PBS, and coverslipped with FluoroGel (Electron Microscopy Sciences). For quantification studies, sections were imaged using a Nikon Eclipse 80i with Surveyor mosaic imaging software. For qualitative assessment, sections were imaged as maximal projections on a Zeiss LSM 510.
# For cell counting in spinal cord, 14 to 18 sections per mouse in segments corresponding to the injection site were analyzed. Slices were imaged using a Nikon Eclipse 80i microscope equipped with a QimagingRetigaExi high-speed CCD camera system and Surveyor mosaic imaging software using a 10× objective. For qualitative purposes, selected sections were also imaged on a Zeiss LSM 510 confocal microscope. Cells were counted manually by individuals blind to the experimental groups from raw (unprocessed) images using ImageJ and Cellprofiler^35 software.
# YFP intensity levels from confocal XYZ image stacks were measured using a semi-automated macro with ImageJ. Individual YFP-positive cells were selected by eye, the criteria being the Z plane having the largest area for each cell. Cell regions were defined by intensity thresholding or manual tracing and the average YFP intensity and percent saturation were calculated for each cell.
# Following the injection, the syringe is rotated slightly and removed.
# [3] = Cortical neurone, Table 1, unsilencing paternal Ube3a-YFP, cortical neurons, 72 h, read-out: EC50
# [4] = Primary cortical neuron, concentration-response curves, 72 hr, n=4, mean±SEM, read-out: EC50 for unsilencing paternal Ube3a-YFP (FIG. 7)
SMILES,"maximal fold induction ([1]; Cortical neurone, 72 h, read-out: Efficacy Emax (fold over control))","EC50 [1, 3]","maximal fold induction ([1]; Neuron, 72 h, read-out: Efficacy Emax (fold over vehicle))","EC20 ([1]; Neuron, 72 h)","EC50 [1, 4]",unsilencing of paternal Ube3a-YFP in dose-response experiments ([1]; 72 h),relative potency versus irinotecan (FIG. 7) ([1]; unsilencing paternal Ube3a-YFP),relative potency versus irinotecan (Example 16) ([1]; upregulation of paternal UBE3A-YFP in cultured neurons),"number of paternal UBE3A-YFP-positive cells in lumbar spinal cord ([2]; 50 nmol/5 μL i.t. once daily, 10 of 14 days)",expression level of unsilenced paternal UBE3A-YFP versus maternal controls ([2]; i.t. 50 nmol/day for 10 of 14 days),"percentage of UBE3A-YFP+ cells that were NeuN+ ([2]; i.t. 50 nmol/day for 10 of 14 days, paternal Ube3a-YFP mice)","time unsilencing of Ube3a-YFP was maintained after cessation of treatment ([2]; i.t. 50 nmol/day for 10 of 14 days, spinal neurons)","persistence of unsilencing 14 days after cessation ([2]; i.t. 100 nmol/day on 10 of 14 days, 14 days washout)",unsilencing of paternal Ube3a-YFP after intrathecal injection [2],"effectiveness at unsilencing in spinal cord compared with irinotecan ([2]; i.t., FIG. 8 Panels B and C)","unsilencing of paternal Ube3a-YFP in the primary screen ([1]; 10 μM for 72 hours, Ube3a m+/pYFP neurons)"
CC[C@@]1(O)C(=O)OCc2c1cc1n(c2=O)Cc2cc3c(CN(C)C)c(O)ccc3nc2-1 [Topotecan],2.25 ± 0.07,54 ± 1.2 nM,2.25 ± 0.05,54 ± 3.4 nM,55 ± 1.2 nM,upregulate paternal UBE3A-YFP in a dose- and time-dependent manner,~20 times,20 ×,significantly increased the number of paternal UBE3A-YFP-positive cells,expressed at levels comparable to maternal UBE3A-YFP controls,> 93% and 93.25%,at least 12 weeks,unsilencing of paternal Ube3a persists,unsilenced the paternal Ube3a-YFP allele in spinal neurons and in DRG neurons,even more effective at unsilencing paternal Ube3a in spinal cord,–
CCc1c2c(nc3ccc(OC(=O)N4CCC(N5CCCCC5)CC4)cc13)-c1cc3c(c(=O)n1C2)COC(=O)[C@]3(O)CC [Irinotecan],–,994 ± 10 nM,–,994 ± 13 nM,996 ± 10 nM,upregulate paternal UBE3A-YFP in a dose- and time-dependent manner,–,–,–,–,–,–,–,unsilenced the paternal Ube3a-YFP allele in spinal neurons and in DRG neurons,–,upregulated UBE3A-YFP fluorescence
